Biological target: T1, human renin (Homo sapiens, UniProt P00797)
T1 construct: purchased National Institute for Biological Standards, London
T1 sequence (P00797 67-406): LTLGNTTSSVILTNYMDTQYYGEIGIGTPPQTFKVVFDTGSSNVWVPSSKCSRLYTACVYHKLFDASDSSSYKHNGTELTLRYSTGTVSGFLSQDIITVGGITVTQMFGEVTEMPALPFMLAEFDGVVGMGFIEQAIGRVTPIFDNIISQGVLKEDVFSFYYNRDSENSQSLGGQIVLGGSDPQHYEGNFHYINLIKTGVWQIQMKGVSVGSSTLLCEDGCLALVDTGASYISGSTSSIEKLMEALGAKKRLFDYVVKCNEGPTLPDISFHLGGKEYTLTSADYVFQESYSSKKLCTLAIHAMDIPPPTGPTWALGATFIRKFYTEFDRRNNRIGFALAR
Experiment: Human renin inhibition in vitro
Format: biochemical
Conditions: human renin with human plasma as substrate, pH 7.4, 37° C., two hours; angiotensin I by radioimmunoassay; read-out: inhibit human renin in vitro, IC50
Method: Compounds of Formula I were evaluated as inhibitors of human renin in an in vitro assay, as follows: This human renin inhibition test has been previously described in detail [Papaioannou et al., Clinical and Experimental Hypertension, A7(9), 1243-1257 (1985)]. Human renin was obtained from the National Institute for Biological Standards, London. An incubation mixture was prepared containing the following components: in a total volume of 0.25 mL: 100 mM Tris-acetate buffer at pH 7.4, 25×10^−6 Goldblatt units of renin, 0.05 mL of plasma from human volunteers taking oral contraceptives, 6.0 mM Na-EDTA, 2.4 mM phenylmethyl sulfonyl fluoride, 1.5 mM 8-hydroxyquinoline, 0.4 mg/mL bovine serum albumin (BSA), and 0.024 mg/mL neomycin sulfate. This mixture was incubated for two hours at 37° C. in the presence or absence of renin inhibitors. The produced angiotensin I was determined by radioimmunoassay (New England Nuclear kit). Test compounds to be assayed were dissolved in DMSO and diluted with 100 mM Tris-acetate buffer at pH 7.4 containing 0.5% BSA to the appropriate concentration. The final concentration of organic solvent in the reaction mixture was less than 1%. Control incubations at 37° C. were used to correct for effects of organic solvent on renin activity. The in vitro enzymatic conversion of angiotensinogen to angiotensin I was inhibited by test compounds of the invention.

IC50: 0.044 µM
SMILES: CC(C)C[C@H](O)[C@H](O)[C@H](CC1CCCCC1)NC(=O)[C@H](C)CNC(=O)C(Cc1ccccc1)CS(=O)(=O)CCN(C)C (stereo partly shown) [Example 1]

From patent publication US6403648B2, “Alkylaminoalkyl-sulfonyl-terminated β-alanineamide amino-diol compounds for treatment of hypertension” (G. D. Searle & Co., priority 1993, dated 2002)
